In patent US20230024096A1, “BIFUNCTIONAL COMPOUNDS FOR THE TREATMENT OF CANCER” (Hoffmann-La Roche Inc., priority 2019, published 2023):

Target: T1, SMARCA2 (Homo sapiens, UniProt P51531)
T1 construct: endogenous in cells; host or cells: HT1080 (CRISPR HiBiT knock-in clone, generated in house)
Assay: SMARCA2 HiBiT degradation assay (cellular)
Type: cell-based
Settings: table head names A549; for DC50: 6 h incubation, HiBiT-tagged SMARCA2, luminescence read-out, read-out: HiBit A549 SMARCA2 IP (nM) 6 h; for Emax: A549, 6 h incubation, Emax = amount of residual protein remaining in the cell following compound treatment

T1 sequence (P51531 whole entry): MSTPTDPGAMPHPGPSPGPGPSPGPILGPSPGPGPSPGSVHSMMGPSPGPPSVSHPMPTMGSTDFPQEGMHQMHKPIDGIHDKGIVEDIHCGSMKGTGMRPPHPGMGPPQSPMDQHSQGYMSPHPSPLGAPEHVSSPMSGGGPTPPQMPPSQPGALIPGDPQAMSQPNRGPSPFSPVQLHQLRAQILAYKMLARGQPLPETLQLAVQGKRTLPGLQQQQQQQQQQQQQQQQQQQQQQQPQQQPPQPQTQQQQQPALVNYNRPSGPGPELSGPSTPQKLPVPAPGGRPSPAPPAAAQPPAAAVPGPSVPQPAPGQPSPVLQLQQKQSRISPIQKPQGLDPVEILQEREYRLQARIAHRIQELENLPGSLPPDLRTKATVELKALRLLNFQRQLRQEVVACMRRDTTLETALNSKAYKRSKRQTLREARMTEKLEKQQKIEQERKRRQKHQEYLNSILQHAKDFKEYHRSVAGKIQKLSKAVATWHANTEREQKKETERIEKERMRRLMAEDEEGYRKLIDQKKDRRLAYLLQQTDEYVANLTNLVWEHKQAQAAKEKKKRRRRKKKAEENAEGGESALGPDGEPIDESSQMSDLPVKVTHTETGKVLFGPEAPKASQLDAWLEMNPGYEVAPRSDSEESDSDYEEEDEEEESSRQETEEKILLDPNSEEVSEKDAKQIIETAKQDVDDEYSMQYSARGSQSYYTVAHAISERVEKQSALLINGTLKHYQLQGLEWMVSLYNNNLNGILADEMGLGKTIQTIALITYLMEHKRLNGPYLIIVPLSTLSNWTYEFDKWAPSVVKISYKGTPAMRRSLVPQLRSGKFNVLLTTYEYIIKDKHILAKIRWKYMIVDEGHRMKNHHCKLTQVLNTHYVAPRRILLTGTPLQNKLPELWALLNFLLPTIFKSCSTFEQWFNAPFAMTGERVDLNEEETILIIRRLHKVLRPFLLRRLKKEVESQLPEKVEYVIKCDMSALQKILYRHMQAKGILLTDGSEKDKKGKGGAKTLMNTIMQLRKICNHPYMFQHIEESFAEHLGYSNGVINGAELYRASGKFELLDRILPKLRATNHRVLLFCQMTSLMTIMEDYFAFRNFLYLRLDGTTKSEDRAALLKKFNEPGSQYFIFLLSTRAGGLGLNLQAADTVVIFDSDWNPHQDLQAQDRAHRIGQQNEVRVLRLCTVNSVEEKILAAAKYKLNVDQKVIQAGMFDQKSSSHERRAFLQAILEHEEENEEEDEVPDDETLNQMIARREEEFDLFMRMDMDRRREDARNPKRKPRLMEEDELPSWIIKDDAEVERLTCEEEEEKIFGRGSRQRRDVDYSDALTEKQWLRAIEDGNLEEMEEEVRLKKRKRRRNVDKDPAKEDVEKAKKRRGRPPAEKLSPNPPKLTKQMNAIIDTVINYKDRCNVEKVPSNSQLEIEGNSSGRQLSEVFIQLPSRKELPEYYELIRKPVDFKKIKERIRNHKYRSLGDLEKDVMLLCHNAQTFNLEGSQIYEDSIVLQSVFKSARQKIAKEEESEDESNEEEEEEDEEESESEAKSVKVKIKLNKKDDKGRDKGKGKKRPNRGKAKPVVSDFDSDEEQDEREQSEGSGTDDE

## Nc1nnc(-c2ccccc2O)cc1OC1CCCN(c2ccc(N3CCN(CCCCCCCCCc4ccnc(CNc5cccc6c5C(=O)N(C5CCC(=O)NC5=O)C6=O)c4)CC3)cc2)C1 (centres unmarked) [Example 139, 4-[[4-[9-[4-[4-[3-[3-amino-6-(2-hydroxyphenyl)pyridazin-4-yl]oxy-1-piperidyl]phenyl]piperazin-1-yl]nonyl]-2-pyridyl]methylamino]-2-(2,6-dioxo-3-piperidyl)isoindoline-1,3-dione]
  DC50: 802 nM
  Emax: 62%

## Nc1nnc(-c2ccccc2O)cc1OC1CCCN(c2ccc(N3CCN(C(=O)CCCCCCCCCCCn4cc(CNc5cccc6c5C(=O)N(C5CCC(=O)NC5=O)C6=O)nn4)CC3)cc2)C1 (centres unmarked) [Example 4, 4-[[1-[12-[4-[4-[3-[3-amino-6-(2-hydroxyphenyl)pyridazin-4-yl]oxy-1-piperidyl]phenyl]piperazin-1-yl]-12-oxo-dodecyl]triazol-4-yl]methylamino]-2-(2,6-dioxo-3-piperidyl)isoindoline-1,3-dione]
  DC50: 149 nM
  Emax: 44%

## Nc1nnc(-c2ccccc2O)cc1N1CCC(C(=O)N2CCC3(CC2)CN(C(=O)CN2CCC(c4ccc(NC5CCC(=O)NC5=O)cc4)CC2)CCO3)(c2ccccc2)CC1 (centres unmarked) [Example 169, 3-((4-(1-(2-(9-(1-(3-amino-6-(2-hydroxyphenyl)pyridazin-4-yl)-4-phenylpiperidine-4-carbonyl)-1-oxa-4,9-diazaspiro[5.5]undecan-4-yl)-2-oxoethyl)piperidin-4-yl)phenyl)amino)piperidine-2,6-dione]
  DC50: 49 nM
  Emax: 56%

## Nc1nnc(-c2ccccc2O)cc1N1CC(Oc2cccc(CN3CCN(C(=O)CCCCCCNc4cccc5c4C(=O)N(C4CCC(=O)NC4=O)C5=O)CC3)c2)C1 (centres unmarked) [Example 30, 4-[[7-[4-[[3-[1-[3-amino-6-(2-hydroxyphenyl)pyridazin-4-yl]azetidin-3-yl]oxyphenyl]methyl]piperazin-1-yl]-7-oxo-heptyl]amino]-2-(2,6-dioxo-3-piperidyl)isoindoline-1,3-dione]
  DC50: 92 nM
  Emax: 63%

## Nc1nnc(-c2ccccc2O)cc1N1CC2CCC(C1)N2c1cccc(OCCN2CCN(C(=O)N3CCC(Oc4cccc5c4C(=O)N(C4CCC(=O)NC4=O)C5=O)CC3)CC2)c1 (racemic) [Example 41, rac-4-[[1-[4-[2-[3-[3-[3-amino-6-(2-hydroxyphenyl)pyridazin-4-yl]-3,8-diazabicyclo[3.2.1]octan-8-yl]phenoxy]ethyl]piperazine-1-carbonyl]-4-piperidyl]oxy]-2-(2,6-dioxo-3-piperidyl)isoindoline-1,3-dione]
  DC50: 46 nM
  Emax: 48%

## Nc1nnc(-c2ccccc2O)cc1N1CC2CCC(C1)N2c1cccc(CN2CCC(C(=O)NC3CCN(c4ccc5c(c4)C(=O)N(C4CCC(=O)NC4=O)C5=O)CC3)CC2)c1 (racemic) [Example 106, rac-1-[[3-[3-[3-amino-6-(2-hydroxyphenyl)pyridazin-4-yl]-3,8-diazabicyclo[3.2.1]octan-8-yl]phenyl]methyl]-N-[1-[2-(2,6-dioxo-3-piperidyl)-1,3-dioxo-isoindolin-5-yl]-4-piperidyl]piperidine-4-carboxamide]
  DC50: 23 nM
  Emax: 26%

## Nc1nnc(-c2ccccc2O)cc1O[C@H]1CCCN(c2ccc(N3CCN(CC4CCN(C(=O)CCCCn5cc(COc6cccc7c6C(=O)N(C6CCC(=O)NC6=O)C7=O)nn5)CC4)CC3)cc2)C1 (mixture of isomers) [Example 140, 2-(2,6-dioxo-3-piperidyl)-4-[[1-[5-oxo-5-[4-[[4-[4-[rac-(3S)-3-[3-amino-6-(2-hydroxyphenyl)pyridazin-4-yl]oxy-1-piperidyl]phenyl]piperazin-1-yl]methyl]-1-piperidyl]pentyl]triazol-4-yl]methoxy]isoindoline-1,3-dione]
  DC50: 275 nM
  Emax: 42%
